# pIC50: −log10 of the molar value.
# What was measured:
# BT-474 = assay: Anticancer activity against human BT-474 assessed as cell growth inhibition incubated for 4 days by WST-8 assay; assay type: functional; details: BT-474, 96 h, time 4 day
# HT-29 = assay: Cytotoxicity against human HT-29 cells assessed as cell growth inhibition; assay type: functional, cell-based
# HCT-116 = assay: Cytotoxicity against human HCT-116 cells assessed as cell growth inhibition measured after 96 hrs by resazurin dye based assay; assay type: functional
# H3396 = assay: Cytotoxicity against human H3396 cells assessed as cell growth inhibition measured after 96 hrs by resazurin dye based assay; assay type: functional
# MOLM-13 = assay: Cytotoxicity against human MOLM-13 cells assessed as cell growth inhibition; assay type: functional, cell-based
# L1210 = assay: Cytotoxicity against mouse L1210 cells assessed as cell growth inhibition measured after 24 hrs; assay type: functional, cell-based; details: L1210, 24 h
# Tubulin = assay: Inhibition of tubulin (unknown origin) polymerization assessed as reduction in microtubule formation measured for 20 mins by spectrophotometric analysis; assay type: protein-complex assay, Homo sapiens
SMILES,GI50 (BT-474) [nM],pIC50 (HT-29),other results
CC[C@H](C)[C@@H]([C@@H](CC(=O)N1C[C@@H](OC)C[C@H]1[C@H](OC)[C@@H](C)C(=O)NCCc1ccccc1)OC)N(C)C(=O)[C@@H](NC(=O)[C@H](C(C)C)N(C)C)C(C)C,0.24,–,–
CC[C@H](C)[C@@H]([C@@H](CC(=O)N1CCC[C@H]1[C@H](OC)[C@@H](C)C(=O)NC1(C(=O)N2CCCCO2)C[C@@H]1c1ccccc1)OC)N(C)C(=O)[C@@H](NC(=O)[C@H](C(C)C)N(C)C)C(C)C (stereo partly drawn),–,9.30,–
CC[C@H](C)[C@@H]([C@@H](CC(=O)N1C[C@@H](O)C[C@H]1[C@H](OC)[C@@H](C)C(=O)NCCc1c(F)cccc1F)OC)N(C)C(=O)[C@@H](NC(=O)[C@H](C(C)C)N(C)C)C(C)C,0.23,–,–
CC[C@H](C)[C@@H]([C@@H](CC(=O)N1C[C@H](O)C[C@H]1[C@H](OC)[C@@H](C)C(=O)NCCc1ccccc1)OC)N(C)C(=O)[C@@H](NC(=O)[C@H](C(C)C)N(C)C)C(C)C,0.68,–,–
CC[C@H](C)[C@@H]([C@@H](CC(=O)N1CCC[C@H]1[C@H](OC)[C@@H](C)C(=O)N[C@@H](Cc1ccccc1)c1nn[nH]n1)OC)N(C)C(=O)[C@@H](NC(=O)[C@H](C(C)C)N(C)C)C(C)C,–,–,GI50 (HCT-116): 6 nM; GI50 (H3396): 0.09 nM
CC[C@H](C)[C@@H]([C@@H](CC(=O)N1CCC[C@H]1[C@H](OC)[C@@H](C)C(=O)N[C@H](/C=C\c1ccccc1)Cc1ccccc1)OC)N(C)C(=O)[C@@H](NC(=O)[C@H](C(C)C)N(C)CCCC(=O)O)C(C)C,–,8.48,–
CC[C@H](C)[C@@H]([C@@H](CC(=O)N1CCC[C@H]1[C@H](OC)[C@@H](C)C(=O)N[C@@H](Cc1ccccc1)c1nnc(-c2ccccc2)o1)OC)N(C)C(=O)[C@@H](NC(=O)[C@H](C(C)C)N(C)CCCC(=O)O)C(C)C,–,10.00,–
CC[C@H](C)[C@@H]1[C@H](OC)CC(=O)N2C[C@H](C[C@H]2[C@H](OC)[C@@H](C)C(=O)N[C@@H](Cc2ccccc2)C(=O)OC)NC(=O)CCCC(=O)N[C@@H](C)[C@H](NC(=O)[C@H](NC)C(C)C)C(=O)N1C,–,–,pIC50 (MOLM-13): < 6.00
CCOP(=O)(OCC)[C@H](Cc1ccccc1)NC(=O)[C@H](C)[C@@H](OC)[C@@H]1CCCN1C(=O)C[C@@H](OC)[C@H]([C@@H](C)CC)N(C)C(=O)[C@@H](NC(=O)[C@H](C(C)C)N(C)C)C(C)C,–,–,GI50 (HCT-116): 6 nM; GI50 (H3396): 0.09 nM
CC[C@H](C)[C@@H]([C@@H](CC(=O)N1C[C@@H](N=[N+]=[N-])C[C@H]1[C@H](OC)[C@@H](C)C(=O)N[C@@H](Cc1ccccc1)C(=O)OC)OC)N(C)C(=O)[C@@H](NC(=O)[C@H](C(C)C)N(C)C)[C@H](C)N=[N+]=[N-],–,–,GI50 (MOLM-13): 0.057 nM
CC[C@H](C)[C@@H]([C@@H](CC(=O)N1CCC[C@H]1/C=C(\C)C(=O)N[C@@H](Cc1ccccc1)c1nccs1)OC)N(C)C(=O)[C@@H](NC(=O)[C@H](C(C)C)N(C)C)C(C)C,–,–,pIC50 (L1210): < 5.00
CC[C@H](C)[C@@H]([C@@H](CC(=O)N1C[C@@H](NC)C[C@H]1[C@H](OC)[C@@H](C)C(=O)NCCc1c(F)cccc1F)OC)N(C)C(=O)[C@@H](NC(=O)[C@H](C(C)C)N(C)C)C(C)C,0.34,–,–
CC[C@H](C)[C@@H]([C@@H](CC(=O)OC(C)(C)C)OC)N(C)C(=O)[C@@H](NC(=O)[C@H](C(C)C)N(C)C)C(C)C,–,–,pIC50 (Tubulin): 8.38
CC[C@H](C)[C@@H]([C@@H](CC(=O)N1C[C@@H](N)C[C@H]1[C@H](OC)[C@@H](C)C(=O)NCCc1c(F)cccc1F)OC)N(C)C(=O)[C@@H](NC(=O)[C@H](C(C)C)N(C)C)C(C)C,0.17,–,–
CC[C@H](C)[C@@H]([C@@H](CC(=O)N1CCC[C@H]1[C@H](OC)[C@@H](C)C(=O)NC1(C(=O)N2Cc3ccccc3CO2)C[C@@H]1c1ccccc1)OC)N(C)C(=O)[C@@H](NC(=O)[C@H](C(C)C)N(C)C)C(C)C (stereo partly drawn),–,8.92,–
CC[C@H](C)[C@@H]([C@@H](CC(=O)N1CCC[C@H]1[C@H](OC)[C@@H](C)C(=O)N[C@H](/C=C/c1ccccc1)Cc1ccccc1)OC)N(C)C(=O)[C@@H](NC(=O)[C@H](C(C)C)N(C)CCCC(=O)O)C(C)C,–,9.52,–
